Measured values published in article PMC10597491 (PLOS ONE, 2023).
Bridge positions count the residues as written; N and C are the ends. Peptide text beside a SMILES is read from it.

How the values were obtained:
[1] = target: T1, human γc ECD (Homo sapiens, UniProt P31785); test: Competition binding ELISA, human γc ECD; settings: immobilized Fc-γc ECD; tracer biotinylated MDK1188 pre-complexed with Neutravidin-HRP; 4°C
T1 construct: human IL-2Rα(aa 23–254)-Fc, Acro Cat# ILG-H5256; purchased Acro ILG-H5256
T1 sequence (P31785 23-254): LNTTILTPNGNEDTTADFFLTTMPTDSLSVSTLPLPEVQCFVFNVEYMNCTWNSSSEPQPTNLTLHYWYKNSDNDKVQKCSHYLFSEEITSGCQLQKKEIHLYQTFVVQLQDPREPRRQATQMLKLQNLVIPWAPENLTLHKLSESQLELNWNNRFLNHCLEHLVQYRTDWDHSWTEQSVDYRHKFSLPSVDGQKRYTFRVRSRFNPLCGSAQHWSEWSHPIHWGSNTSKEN
Excerpt: (§1) (A, B) Determination of IC50 values in a competition ELISA for compound binding to human and cyno IL-7Rα and γc. The assay format is IL-7Rα-(His)6-tagged ECD or Fc-γc ECD immobilized on 96-well plates. Tracers are C-terminal biotinylated forms of the reference IL-7Rα and γc peptide ligands, each pre-complexed with Neutravidin-HRP (NA-HRP). (C, D) Label-free measurement of the equilibrium dissociation constant (KD) for peptide binding to IL-7Rα and γc extracellular domains with peptides was performed by biolayer interferometry as detailed in methods. Red lines depict 1:1 binding fit from Gator™ software. Blue lines represent individual BLI sensogram data taken every 0.1 seconds.
(§2) Binding was determined using a competition binding ELISA. Microtiter plates (Immulon 4HBX flat bottom 96-well) were coated with 50 μL of […] human ECDs: IL-7Rα(aa 21–236)-His6, Sino Biological Cat# 10975-H08H; cynomolgus IL-7Rα(aa 21–235)-His6, Sino Biological Cat# 90332-C08H; human IL-2Rα(aa 23–254)-Fc, Acro Cat# ILG-H5256; cynomolgus IL-2Rα(aa 23–254)-Fc, made in-house, in PBS overnight at 4°C. […] Plates were washed with cold wash buffer, and bound tracer was detected using TMB One Component HRP substrate and Stop Solution (Surmodics Cat# TMBW-1000-01 and LSTP-0100-01). Absorbance at 450 nm was read using Agilent BioTek Synergy HTX Multimode Reader.

[2] = target: T2, IL-7R (Homo sapiens, UniProt P16871+P31785); test: STAT5 phosphorylation in TF1-7Rα cells; type: cell-based; settings: TF1-7Rα cells, 10 μM peptide alone
T2 construct: constructed to express full-length human IL-7Rα in TF-1 cells; TF-1 cells, which naturally express γc, but not IL-7Rα; expressed in transfected cells
T2 sequence (P16871 21-459): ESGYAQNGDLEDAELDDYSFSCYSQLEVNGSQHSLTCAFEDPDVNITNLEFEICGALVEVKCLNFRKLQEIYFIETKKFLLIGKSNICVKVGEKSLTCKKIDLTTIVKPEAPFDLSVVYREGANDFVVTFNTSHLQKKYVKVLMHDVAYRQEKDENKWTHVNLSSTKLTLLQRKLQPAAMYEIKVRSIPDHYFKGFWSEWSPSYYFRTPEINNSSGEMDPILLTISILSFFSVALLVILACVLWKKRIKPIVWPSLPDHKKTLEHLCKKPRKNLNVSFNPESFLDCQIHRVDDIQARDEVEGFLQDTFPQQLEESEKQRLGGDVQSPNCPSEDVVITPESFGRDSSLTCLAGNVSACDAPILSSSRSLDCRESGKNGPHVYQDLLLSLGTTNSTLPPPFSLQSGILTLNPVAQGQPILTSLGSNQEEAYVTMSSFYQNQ
T2 sequence (P31785 23-369): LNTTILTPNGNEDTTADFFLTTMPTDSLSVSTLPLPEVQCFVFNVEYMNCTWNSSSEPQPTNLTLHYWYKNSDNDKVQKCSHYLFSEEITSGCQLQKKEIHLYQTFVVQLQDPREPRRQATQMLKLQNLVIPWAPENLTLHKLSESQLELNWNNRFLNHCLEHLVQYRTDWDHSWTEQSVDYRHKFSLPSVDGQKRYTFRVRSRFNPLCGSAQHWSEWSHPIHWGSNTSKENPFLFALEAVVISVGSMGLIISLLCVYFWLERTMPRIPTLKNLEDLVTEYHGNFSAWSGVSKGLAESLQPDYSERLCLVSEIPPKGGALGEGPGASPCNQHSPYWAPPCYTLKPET
Protocol: The synthetic peptide MDK1472 was designed to bind simultaneously to IL-7Rα and γc subunits and was tested for its ability to induce phosphorylation of STAT5, the primary IL-7R signaling pathway.
Reactions were stopped and cell lysates prepared for pSTAT5 analysis.
(§3) Cells were deprived of growth factors by overnight incubation at 5×10^5 cells/mL in starvation medium (RPMI 1640 + 4.5 g/L glucose + 0.2% FBS + 2 mM L-glutamine + 1 mM NaPyr + 10 mM HEPES + 0.5x penicillin-streptomycin with no cytokine supplement) in T75 flasks. For assays, cells were plated in 96-well V-bottom plates at 2×10^5 cells/well. Three-fold serial dilutions in starvation medium of the test compounds or cytokine were added to the cells and incubated for 30 min at 37°C. Following incubation, cell extracts were prepared by adding a mixture of 10x Cell Lysis Buffer (Cell Signaling Technology Cat# 9803) and 100x HALT Phosphatase and Protease Inhibitor Cocktail (Thermo Fisher Cat# 78442) directly to the wells. The plates were agitated at 25°C for 5 min to prepare cell extracts for immediate use or to be stored at -80°C until assay. Detection of pSTAT5 was performed using a PathScan® Phospho-Stat5 (pTyr694) Sandwich ELISA Kit (Cell Signaling Technology Cat# 7113). Detection of pSTAT6 was performed using a PathScan® Phospho-Stat6 (pTyr641) Sandwich ELISA Kit (Cell Signaling Technology Cat# 7275). Detection of pSTAT3 was performed using a PathScan® Phospho-Stat3 (pTyr705) Sandwich ELISA Kit (Cell Signaling Technology Cat# 7300). Cell lysates were added to pre-coated ELISA wells and incubated at 4°C overnight. Primary and secondary antibody incubations and wash steps were performed according to the protocols supplied by the manufacturer. Assays were developed using TMB substrate (Surmodics Cat# TMBW-1000-01) for 5–10 min at 25°C and the reaction was stopped using STOP solution (Surmodics Cat# LSTP-1000-01).

[3] = target: T3, IL-2βγc receptor (Homo sapiens, UniProt P31785); test: IL-2-induced pSTAT5 in TF-1 cells expressing IL-2/15Rβ; type: cell-based
T3 construct: pcDNA3.1 expression vector encoding full-length IL-2Rβ, IL-7Rα, IL-9Rα, or IL-21Rα; TF-1 cells naturally express γc and IL-4Rα; expressed in transfected cells
T3 sequence (P31785 23-369): T2 sequence (P31785 23-369)
Protocol: as §3, with “Primary and secondary antibody incubations and wash steps were performed according to the protocols supplied by the manufacturer. Assays were developed using TMB substrate (Surmodics Cat# TMBW-1000-01) for 5–10 min at 25°C and the reaction was stopped using STOP solution (Surmodics Cat# LSTP-1000-01).” left out

[4] = target: T4, human IL-7Rα ECD (Homo sapiens, UniProt P16871); test: Competition binding ELISA, human IL-7Rα ECD; settings: immobilized IL-7Rα-(His)6 ECD; tracer biotinylated MDK1248 pre-complexed with Neutravidin-HRP; 4°C; valency-sensitive format
T4 construct: IL-7Rα(aa 21–236)-His6, Sino Biological Cat# 10975-H08H; His6 (C); purchased Sino Biological 10975-H08H
T4 sequence (P16871 21-236): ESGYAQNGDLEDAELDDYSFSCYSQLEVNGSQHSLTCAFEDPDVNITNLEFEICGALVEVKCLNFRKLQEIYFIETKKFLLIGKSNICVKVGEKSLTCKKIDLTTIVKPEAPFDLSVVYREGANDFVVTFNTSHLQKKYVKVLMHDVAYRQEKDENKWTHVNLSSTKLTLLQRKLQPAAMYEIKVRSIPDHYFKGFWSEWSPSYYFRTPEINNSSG
Excerpt: as §1, §2

[5] = target: T5, cynomolgus IL-7Rα (Macaca fascicularis, UniProt Q38IC7); test: Competition binding ELISA, cynomolgus IL-7Rα ECD; settings: immobilized cynomolgus IL-7Rα-His6 ECD; biotinylated peptide/NA-HRP tracer; read-out: Competition ELISA IC50, IL-7Rα Cyno
T5 construct: cynomolgus IL-7Rα(aa 21–235)-His6, Sino Biological Cat# 90332-C08H; His6 (C); purchased Sino Biological 90332-C08H
T5 sequence (Q38IC7 21-235): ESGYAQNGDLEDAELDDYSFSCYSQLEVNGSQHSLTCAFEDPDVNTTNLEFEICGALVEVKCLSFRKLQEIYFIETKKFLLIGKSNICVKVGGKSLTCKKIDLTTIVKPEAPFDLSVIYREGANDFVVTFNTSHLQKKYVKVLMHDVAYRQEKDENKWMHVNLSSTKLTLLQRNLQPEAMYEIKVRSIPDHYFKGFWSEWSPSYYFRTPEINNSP
Excerpt: as §1, §2

IC50 [1] [nM]	induction of pSTAT5 by individual peptide ligands [2]	IC50 [3] [nM]	IC50 [4] [nM]	IC50 [5] [nM]	Structure (SMILES)
24	no induction of pSTAT5	1600	–	–	CC(C)C[C@@H]1NC(=O)[C@H](CCC(=O)O)NC(=O)[C@H](C(C)C)NC(=O)CNC(=O)[C@H](CCC(=O)O)NC(=O)[C@H](Cc2c[nH]c3ccccc23)NC(=O)[C@H](CC(=O)O)NC(=O)[C@H](CCC(N)=O)NC(=O)[C@@H](NC(=O)[C@@H](NC(=O)[C@@H](NC(=O)CNC(=O)CN)C(C)C)C(C)C)CSSC[C@@H](C(=O)N[C@@H](Cc2c[nH]c3ccccc23)C(=O)N[C@@H](CCC(N)=O)C(=O)NCC(=O)NCC(=O)O)NC1=O [MDK1188]
–	no induction of pSTAT5	–	150	92	CC[C@H](C)[C@H](NC(=O)CNC(=O)[C@H](Cc1c[nH]c2ccccc12)NC(=O)CN)C(=O)N1CCC[C@H]1C(=O)N[C@@H](Cc1c[nH]c2ccccc12)C(=O)N[C@H]1CSSC[C@@H](C(=O)N[C@@H](C)C(=O)N[C@@H](Cc2c[nH]c3ccccc23)C(=O)N[C@@H](CC(C)C)C(=O)NCC(=O)N[C@@H](CCCCN)C(=O)N[C@@H](Cc2c[nH]cn2)C(=O)NCC(=O)NCC(=O)O)NC(=O)[C@H](CCC(N)=O)NC(=O)[C@H](CC(C)C)NC(=O)[C@H](CO)NC(=O)CNC(=O)[C@@H]2CCCN2C(=O)[C@H](CC(=O)O)NC(=O)[C@H](CC(C)C)NC(=O)[C@H]([C@@H](C)O)NC1=O [MDK1248] (H-GWGIPWCTLDPGSLQCAWLGKHGG-OH; disulfide 7-16)
